In ChEMBL document CHEMBL5034037, “Synthesis, Characterization, and Preclinical Evaluation of a Small-Molecule Prostate-Specific Membrane Antigen-Targeted Monomethyl Auristatin E Conjugate” (J Med Chem, 2021):
Several values for one entry are separate records, joined by “and”; a condition that tells them apart may be missing. Identical values can stand only once. Activity calls are given as the source filed them. No cut-off for these calls is given here. *1 amine or outer side, *2 acyl side, *3 side chain or, on linkers, in order; H or OH if unused. Where a SMILES comes first, the peptide text is derived from it. [ ]: non-standard residue; d: D form. The star is where a group is joined. GluureaLys(ε-3-ClBenzyl) = O=C(O)CC[C@H](NC(=O)N[C@@H](CCCCN(Cc1cccc(Cl)c1)*)C(=O)O)C(=O)O; Dolaproine = CO[C@@H]([C@@H]1CCCN1)[C@@H](C)C(=O)O; Dil = CC[C@H](C)[C@H](NC)[C@@H](CC(=O)O)OC; X1 = O=C(CCCc1cn(CCCN[*:1])nn1)[*:2]; PABC = O=C(OCc1ccc(N[*:1])cc1)[*:2]; X2 = C[C@@H](N*)[C@@H](O)c1ccccc1; Cit = NC(=O)NCCC[C@H](N)C(=O)O; Suc = O=C(CCC(=O)[*:2])[*:1]; NMeV = CN[C@H](C(=O)O)C(C)C; Ahx = NCCCCCC(=O)O

What was measured:
[1] = Chronic toxicity in rat assessed as reduced volume of urine at […], iv administered once every 3 weeks for 3 months; type: organism-based; settings: in vivo, 504 h, dose lower 150 mg/kg
[2] = Toxicity in rat assessed as morphological changes in adrenal gland at 150 to 225 microg/kg, iv; type: tissue-based; settings: in vivo, dose 150-225 µg/kg
[3] = Toxicity in rat assessed as morphological changes in adrenal medulla at 150 to 225 microg/kg, iv; settings: in vivo, dose 150-225 µg/kg
[4] = molecular target: Cytochrome P450 2C9 (Homo sapiens, UniProt P11712); experiment: Inhibition of CYP2C9 in human liver microsome using tolbutamide as substrate; type: ADME, microsomes
[5] = AUC (0 to infinity) in Wistar rat at 1.5 mg/kg, iv; type: ADME, organism-based; set-up: time infinity, route intravenous, dose 1.5 mg/kg; settings: in vivo
[6] = tested on: PC-3; experiment: Induction morphological changes in human PC-3 cells assessed as decrease in cell membrane stiffness measured upto 1 hr; type: functional, cell-based; settings: time hrs <=1
[7] = tested on: Salmonella typhimurium; experiment: Mutagenecity in Salmonella typhimurium TA97 in presence of metabolic activation system at 1 ug/ml by Ames test; type: toxicity, organism-based; settings: salmonella enterica subsp. enterica serovar typhimurium; dose 1 µg/ml
[8] = molecular target: T1, Cytochrome P450 1A2 (Homo sapiens, UniProt P05177); experiment: Drug metabolism assessed as human liver microsome CYP1A2-mediatd metabolism; type: ADME; settings: microsomes
T1 sequence (P05177 whole entry): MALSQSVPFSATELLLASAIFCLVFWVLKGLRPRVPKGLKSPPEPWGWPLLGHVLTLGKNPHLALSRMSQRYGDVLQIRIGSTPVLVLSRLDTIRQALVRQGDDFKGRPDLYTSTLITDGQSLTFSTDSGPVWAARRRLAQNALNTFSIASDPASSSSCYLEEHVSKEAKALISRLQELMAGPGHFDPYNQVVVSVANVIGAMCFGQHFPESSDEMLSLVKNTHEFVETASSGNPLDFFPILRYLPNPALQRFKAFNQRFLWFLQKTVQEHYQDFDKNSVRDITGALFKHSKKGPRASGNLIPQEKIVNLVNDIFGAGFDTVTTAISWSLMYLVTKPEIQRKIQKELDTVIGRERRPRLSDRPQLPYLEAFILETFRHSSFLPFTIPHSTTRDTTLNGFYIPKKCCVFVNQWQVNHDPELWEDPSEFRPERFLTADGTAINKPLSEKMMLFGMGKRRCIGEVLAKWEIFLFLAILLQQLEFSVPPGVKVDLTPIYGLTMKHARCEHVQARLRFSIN

[9] = tested on: Salmonella typhimurium; experiment: Mutagenecity in Salmonella typhimurium TA100 without metabolic activation system at 10 ug/ml by Ames test; type: toxicity, organism-based; settings: salmonella enterica subsp. enterica serovar typhimurium; dose 10 µg/ml
[10] = Toxicity in rat assessed as morphological changes in peritoneum at 150 to 225 microg/kg, iv; type: tissue-based; settings: in vivo, dose 150-225 µg/kg
[11] = Toxicity in rabbit assessed as morphological changes in spleen at 81 to 122 microg/kg, iv; type: tissue-based, Oryctolagus cuniculus; settings: in vivo, dose 81-122 µg/kg
[12] = Toxicity in rat assessed as morphological changes in urinary bladder at 150 to 225 microg/kg, iv; settings: in vivo, dose 150-225 µg/kg
[13] = tested on: Salmonella typhimurium; experiment: Mutagenecity in Salmonella typhimurium TA98 without metabolic activation system at 1 ug/ml by Ames test; type: toxicity, organism-based; settings: salmonella enterica subsp. enterica serovar typhimurium; dose 1 µg/ml
[14] = Acute toxicity in iv dosed Wistar rat assessed as median mortality dose; type: organism-based; settings: in vivo
[15] = tested on: CWR22R; experiment: Antitumor activity against human 22Rv1 cells xenografted in mouse assessed as tumour growth inhibition at 0.3 mg/kg, ip daily treated for 5 days after 18 days of tumor implantation measured upto 10 days; type: functional; settings: 22Rv1, ip, 120 h, time 5 day, read-out: TGI
[16] = Volume of distribution in rabbit at 0.81 mg/kg, iv; type: ADME, organism-based, Oryctolagus cuniculus; settings: in vivo
[17] = Toxicity in rat assessed as morphological changes in mucosae of mouth at 150 to 225 microg/kg, iv; type: tissue-based; settings: in vivo, dose 150-225 µg/kg
[18] = species: Oryctolagus cuniculus; experiment: Induction of morphological change in heart of rabbit; type: organism-based; settings: in vivo
[19] = AUC (0 to infinity) in rabbit at 0.81 mg/kg, iv; type: ADME, organism-based, Oryctolagus cuniculus; set-up: time infinity, route intravenous, dose 0.81 mg/kg; settings: in vivo
[20] = Toxicity in rat assessed as morphological changes in lumen of trachea at 150 to 225 microg/kg, iv; type: tissue-based; settings: in vivo, dose 150-225 µg/kg
[21] = Toxicity in rat assessed as morphological changes in cerebrum at 150 to 225 microg/kg, iv; type: tissue-based; settings: in vivo, dose 150-225 µg/kg
[22] = Toxicity in rabbit assessed as morphological changes in testes at 81 to 122 microg/kg, iv; set-up: species or system Oryctolagus cuniculus; settings: in vivo, dose 81-122 µg/kg
[23] = Stability of the compound in human liver microsome assessed as half life; type: ADME; settings: liver microsomes
[24] = Toxicity in rabbit assessed as thrombosis at 81 to 122 microg/kg, iv; set-up: species or system Oryctolagus cuniculus; settings: in vivo, dose 81-122 µg/kg
[25] = Toxicity in rat assessed as morphological changes in heart valve at 150 to 225 microg/kg, iv; type: tissue-based; settings: in vivo, dose 150-225 µg/kg
[26] = tested on: Salmonella typhimurium; experiment: Mutagenecity in Salmonella typhimurium TA98 in presence of metabolic activation system at 10000 ug/ml by Ames test; type: toxicity, organism-based; settings: salmonella enterica subsp. enterica serovar typhimurium; dose 10000 µg/ml
[27] = AUC (0 to t) in Wistar rat at 1.5 mg/kg, iv; type: ADME, organism-based; set-up: dose 1.5 mg/kg; settings: in vivo
[28] = Toxicity in rabbit assessed as traumatic vein injury at 81 to 122 microg/kg, iv; type: tissue-based, Oryctolagus cuniculus; settings: in vivo, dose 81-122 µg/kg
[29] = Stability of the compound in mouse liver microsome assessed as half life; type: ADME; settings: liver microsomes
[30] = Toxicity in mouse assessed as change in body weight at 0.3 mg/kg, iv measured after 20 days; type: organism-based; settings: in vivo, 480 h, time 20 day
[31] = tested on: Salmonella typhimurium; experiment: Mutagenecity in Salmonella typhimurium TA97 in presence of metabolic activation system at 1000 ug/ml by Ames test; type: toxicity, organism-based; settings: salmonella enterica subsp. enterica serovar typhimurium; dose 1000 µg/ml
[32] = tested on: Salmonella typhimurium; experiment: Mutagenecity in Salmonella typhimurium TA98 without metabolic activation system at 10000 ug/ml by Ames test; type: toxicity, organism-based; settings: salmonella enterica subsp. enterica serovar typhimurium; dose 10000 µg/ml
[33] = Half life in Wistar rat at 1.5 mg/kg, iv; type: ADME, organism-based; settings: in vivo
[34] = molecular target: T2, Cytochrome P450 2C8 (Homo sapiens, UniProt P10632); experiment: Inhibition of CYP2C8 in human liver microsome using paclitaxel as substrate; type: ADME, microsomes
T2 sequence (P10632 whole entry): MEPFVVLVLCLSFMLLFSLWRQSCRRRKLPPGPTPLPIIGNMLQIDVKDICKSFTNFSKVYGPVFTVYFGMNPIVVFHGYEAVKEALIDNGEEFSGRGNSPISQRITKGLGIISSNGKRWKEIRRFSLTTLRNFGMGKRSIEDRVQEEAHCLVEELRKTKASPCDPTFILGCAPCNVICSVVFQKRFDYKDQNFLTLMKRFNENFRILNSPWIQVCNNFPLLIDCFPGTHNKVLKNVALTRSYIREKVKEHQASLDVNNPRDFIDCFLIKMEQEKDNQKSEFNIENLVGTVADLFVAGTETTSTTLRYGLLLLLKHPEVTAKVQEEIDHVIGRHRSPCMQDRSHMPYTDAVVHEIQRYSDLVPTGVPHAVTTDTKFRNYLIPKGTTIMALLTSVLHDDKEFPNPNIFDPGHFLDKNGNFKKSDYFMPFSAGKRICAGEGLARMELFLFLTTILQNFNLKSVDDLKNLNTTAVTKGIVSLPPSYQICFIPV

Chain of Cytochrome P450 2C9 (P11712 whole entry): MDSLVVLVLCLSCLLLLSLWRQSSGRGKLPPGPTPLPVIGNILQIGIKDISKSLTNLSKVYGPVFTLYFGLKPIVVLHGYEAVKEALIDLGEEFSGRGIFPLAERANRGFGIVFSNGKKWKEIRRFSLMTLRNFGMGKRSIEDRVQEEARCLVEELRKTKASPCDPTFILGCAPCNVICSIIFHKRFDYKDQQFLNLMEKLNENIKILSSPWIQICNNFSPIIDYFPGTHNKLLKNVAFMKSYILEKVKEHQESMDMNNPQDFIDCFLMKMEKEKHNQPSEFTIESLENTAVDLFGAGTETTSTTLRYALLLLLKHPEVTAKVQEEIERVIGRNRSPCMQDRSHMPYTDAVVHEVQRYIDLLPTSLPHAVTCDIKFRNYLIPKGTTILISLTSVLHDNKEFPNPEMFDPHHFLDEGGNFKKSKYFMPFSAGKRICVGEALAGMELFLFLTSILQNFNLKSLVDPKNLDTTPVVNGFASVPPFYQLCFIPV

## CC[C@H](C)[C@@H]([C@@H](CC(=O)N1CCC[C@H]1[C@H](OC)[C@@H](C)C(=O)N[C@H](C)[C@@H](O)c1ccccc1)OC)N(C)C(=O)[C@@H](NC(=O)[C@H](C(C)C)N(C)C(=O)OCc1ccc(NC(=O)[C@H](CCCNC(N)=O)NC(=O)[C@@H](NC(=O)CCCc2cn(CCCNC(=O)[C@H](Cc3ccc(O)cc3)NC(=O)[C@H](Cc3ccccc3)NC(=O)CCC(=O)NCCCCCC(=O)N(CCCC[C@H](NC(=O)N[C@@H](CCC(=O)O)C(=O)O)C(=O)O)Cc3cccc(Cl)c3)nn2)C(C)C)cc1)C(C)C ({GluureaLys(ε-3-ClBenzyl)-Ahx-Suc}-FY[X1]V[Cit][PABC][NMeV]V[Dil][Dolaproine]-X2)
[1]
  Activity: Toxic
[2]
  Activity: Non-Toxic
[3]
  Activity: Non-Toxic
[4]
  IC50: > 25 µM
[5]
  AUC(0-inf): 88000 ng·h/mL
[6]
  Activity: Active
[7]
  Activity: Non-Toxic
[8]
  Drug metabolism: Metabolite_Notdetected
[9]
  Activity: Non-Toxic
[10]
  Activity: Non-Toxic
[11]
  Activity: Non-Toxic
[12]
  Activity: Non-Toxic
[13]
  Activity: Non-Toxic
[14]
  LD50: 4.9 mg/kg and 2.2 µmol/kg
[15]
  inhibition in vivo at 0.3 mg/kg: 70%
[16]
  Vd: 0.158 L/kg
[17]
  Activity: Non-Toxic
[18]
  Activity: Non-Toxic
[19]
  AUC(0-inf): 35000 ng·h/mL
[20]
  Activity: Non-Toxic
[21]
  Activity: Non-Toxic
[22]
  Activity: Non-Toxic
[23]
  half-life: 34.3 min
[24]
  Activity: Toxic
[25]
  Activity: Non-Toxic
[26]
  Activity: Non-Toxic
[27]
  AUC(0-t): 76000 ng·h/mL
[28]
  Activity: Toxic
[29]
  half-life: 27.4 min
[30]
  Activity: Non-Toxic
[31]
  Activity: Non-Toxic
[32]
  Activity: Non-Toxic
[33]
  half-life: 282 min
[34]
  IC50: > 25 µM
